Among the data in ChEMBL document CHEMBL1145877, “5H-8,9-dimethoxy-5-(2-N,N-dimethylaminoethyl)dibenzo[c,h][1,6]naphthyridin-6-ones and related compounds as TOP1-targeting agents: influence of structure on the ternary cleavable complex formation” (Bioorg Med Chem Lett, 2003) are REC values, retold here.

The structures appear in SMILES notation.

The assay deals with T1, DNA topoisomerase 1 (Homo sapiens) (UniProt P11387).
T1 sequence (whole entry): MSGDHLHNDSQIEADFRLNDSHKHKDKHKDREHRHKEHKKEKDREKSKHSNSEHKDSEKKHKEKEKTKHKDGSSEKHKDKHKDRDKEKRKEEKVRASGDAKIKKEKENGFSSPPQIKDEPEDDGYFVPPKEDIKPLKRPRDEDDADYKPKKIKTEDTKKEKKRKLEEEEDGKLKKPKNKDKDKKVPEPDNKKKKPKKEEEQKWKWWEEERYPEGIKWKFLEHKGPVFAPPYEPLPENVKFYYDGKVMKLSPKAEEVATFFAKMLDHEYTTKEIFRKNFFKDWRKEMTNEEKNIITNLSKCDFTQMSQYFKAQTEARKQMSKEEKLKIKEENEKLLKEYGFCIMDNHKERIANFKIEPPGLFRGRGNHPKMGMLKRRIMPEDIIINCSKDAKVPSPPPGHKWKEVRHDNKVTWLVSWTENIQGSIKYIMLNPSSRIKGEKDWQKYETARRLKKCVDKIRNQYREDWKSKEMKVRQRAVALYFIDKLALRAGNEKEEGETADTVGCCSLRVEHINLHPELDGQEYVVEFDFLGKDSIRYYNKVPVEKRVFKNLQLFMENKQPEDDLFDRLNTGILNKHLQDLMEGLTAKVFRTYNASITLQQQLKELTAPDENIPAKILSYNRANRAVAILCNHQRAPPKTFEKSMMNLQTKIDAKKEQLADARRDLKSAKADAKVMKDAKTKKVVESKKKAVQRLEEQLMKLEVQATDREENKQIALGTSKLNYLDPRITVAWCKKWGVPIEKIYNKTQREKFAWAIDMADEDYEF
The assay can be described thus: Concentration relative to topotecan for topoisomerase DNA topoisomerase I cleavage.

In the case of `COc1cc2c(=O)n(CCN(C)C)c3c4cccc([N+](=O)[O-])c4ncc3c2cc1OC`, the REC was 9.
`COc1cc2c(=O)n(CCCN(C)C)c3c4cc5c(cc4ncc3c2cc1OC)OCO5` displayed an REC of 1.
The same measure for `COc1cc2c(=O)n(CCN(C)C)c3c4cc([N+](=O)[O-])ccc4ncc3c2cc1OC`: 2.
As for `COc1cc2c(=O)n(CCN(C)C)c3c4ccc([N+](=O)[O-])cc4ncc3c2cc1OC`, the REC was 6.
`COc1cc2c(=O)n(CCN(C)C)c3c(cnc4cccc([N+](=O)[O-])c43)c2cc1OC` showed an REC of 300.
The same measure for `COc1cc2c(=O)n(CCN(C)C)c3c4cc5c(cc4nnc3c2cc1OC)OCO5`: 0.3; for `COc1cc2c(cc1OC)-c1cnc3cc4c(cc3c1N(CCN(C)C)C2)OCO4`: 0.8.
